Laboratory results taken from US9428492B2, “Secondary alcohol substituted triazoles as PDE10 inhibitors” (Merck Sharp & Dohme Corp., priority 2012, dated 2016).
Like-named read-outs stand apart in the source and are kept apart here.

Key:
human PDE10A2 = human PDE10A2 (Homo sapiens (Human), UniProt Q9Y233); test: PDE10 fluorescence polarization (IMAP FP) inhibition assay; assay type: biochemical
Method: The activity of the compounds in accordance with the present invention as PDE10 inhibitors may be readily determined without undue experimentation using a fluorescence polarization (FP) methodology that is well known in the art (Huang, W., et al., J. Biomol Screen, 2002, 7: 215).
In a typical experiment the PDE10 inhibitory activity of the compounds of the present invention was determined in accordance with the following experimental method. PDE10A2 was amplified from human fetal brain cDNA (Clontech, Mountain View, Calif.) using a forward primer corresponding to nucleotides 56-77 of human PDE10A2 (Accession No. AF127480, Genbank Identifier 4894716), containing a Kozak consensus sequence, and a reverse primer corresponding to nucleotides 2406-2413 of human PDE10A2 (Accession No. AF127480, Genbank Identifier 4894716). Amplification with Easy-A polymerase (Stratagene, La Jolla, Calif.) was 95° C. for 2 minutes followed by thirty three cycles of 95° C. for 40 seconds, 55° C. for 30 seconds, and 72° C. for 2 minutes 48 seconds. Final extension was 72° C. for 7 minutes. The PCR product was TA cloned into pcDNA3.2-TOPO (Invitrogen, Carlsbad, Calif.) according to standard protocol. AD293 cells with 70-80% confluency were transiently transfected with human PDE10A2/pcDNA3.2-TOPO using Lipofectamine 2000 according to manufacturer specifications (Invitrogen, Carlsbad, Calif.). Cells were harvested 48 hours post-transfection and lysed by sonication (setting 3, 10×5 sec pulses) in a buffer containing 20 mM HEPES, 1 mM EDTA and protease inhibitor cocktail (Roche). Lysate was collected by centrifugation at 75,000×g for 20 minutes. Supernatant containing the cytoplasmic fraction was used for evaluation of PDE10A2 activity. The fluorescence polarization assay for cyclic nucleotide phosphodiesterases was performed using an IMAP® FP kit supplied by Molecular Devices, Sunnyvale, Calif. (product # R8139). IMAP® technology has been applied previously to phosphodiesterase assays (Huang, W., et al., J. Biomol Screen, 2002, 7: 215). Assays were performed at room temperature in 384-well microtiter plates with an incubation volume of 20.2 μL. Solutions of test compounds were prepared in DMSO and serially diluted with DMSO to yield 8 μL of each of 10 solutions differing by 3-fold in concentration, at 32 serial dilutions per plate. […] 0% of inhibition is determined by using DMSO (1% final concentrations).
A Labcyte Echo 555 (Labcyte, Sunnyvale, Calif.) is used to dispense 200 nL from each well of the titration plate to the 384 well assay plate. A solution of enzyme (1/1600 dilution from aliquots; sufficient to produce 20% substrate conversion) and a separate solution of FAM-labeled cAMP PDE from Molecular Devices (product # R7506), at a final concentration of 50 nM are made in the assay buffer (10 mM Tris HCl, pH 7.2, 10 mM MgCl2, 0.05% NaN3 0.01% Tween-20, and 1 mM DTT). The enzyme and the substrate are then added to the assay plates in two consecutive additions of 10 μL, and then shaken to mix. The reaction is allowed to proceed at room temperature for 30 minutes. […] The enzymatic reaction is stopped by addition of 60 μL of the binding solution to each well of the assay plates and the plates are sealed and shaken for 10 seconds. The plate was incubated at room temperature for at least one hour prior to determining the fluorescence polarization (FP). The parallel and perpendicular fluorescence of each well of the plate was measured using a Perkin Elmer EnVision™ plate reader (Waltham, Mass.).
Fluorescence polarization (mP) was calculated from the parallel (S) and perpendicular (P) fluorescence of each sample well and the analogous values for the median control well, containing only substrate (So and Po), using the following equation: Polarization (mP)=1000*(S/So−P/Po)/(S/So+P/Po).
Dose-inhibition profiles for each compound were characterized by fitting the mP data to a four-parameter equation given below.

CYP2C9 = CYP2C9 (Homo sapiens (Human), UniProt P11712); test: reversible inhibition of CYP2C9; assay type: in vitro ADME
CYP2C9, sequence (P11712 whole entry): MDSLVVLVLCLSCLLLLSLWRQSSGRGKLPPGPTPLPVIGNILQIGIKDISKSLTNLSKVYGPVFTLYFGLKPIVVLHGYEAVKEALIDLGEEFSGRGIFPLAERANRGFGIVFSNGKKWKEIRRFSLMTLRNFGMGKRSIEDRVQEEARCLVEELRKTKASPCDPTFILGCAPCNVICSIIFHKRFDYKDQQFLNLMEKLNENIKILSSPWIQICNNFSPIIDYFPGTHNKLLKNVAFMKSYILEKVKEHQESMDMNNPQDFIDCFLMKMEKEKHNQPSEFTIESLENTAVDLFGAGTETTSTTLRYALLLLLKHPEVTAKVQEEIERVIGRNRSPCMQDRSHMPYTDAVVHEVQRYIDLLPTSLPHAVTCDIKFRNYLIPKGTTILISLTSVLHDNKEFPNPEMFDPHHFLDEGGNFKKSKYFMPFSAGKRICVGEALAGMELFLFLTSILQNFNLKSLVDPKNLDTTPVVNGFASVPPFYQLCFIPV

CYP3A4 = CYP3A4 (Homo sapiens (Human), UniProt P08684); test: time-dependent inhibition (TDI) of CYP3A4; assay type: in vitro ADME; conditions: for time-dependent inhibition (TDI) of the CYP3A4 enzyme: result in words
CYP3A4, sequence (P08684 whole entry): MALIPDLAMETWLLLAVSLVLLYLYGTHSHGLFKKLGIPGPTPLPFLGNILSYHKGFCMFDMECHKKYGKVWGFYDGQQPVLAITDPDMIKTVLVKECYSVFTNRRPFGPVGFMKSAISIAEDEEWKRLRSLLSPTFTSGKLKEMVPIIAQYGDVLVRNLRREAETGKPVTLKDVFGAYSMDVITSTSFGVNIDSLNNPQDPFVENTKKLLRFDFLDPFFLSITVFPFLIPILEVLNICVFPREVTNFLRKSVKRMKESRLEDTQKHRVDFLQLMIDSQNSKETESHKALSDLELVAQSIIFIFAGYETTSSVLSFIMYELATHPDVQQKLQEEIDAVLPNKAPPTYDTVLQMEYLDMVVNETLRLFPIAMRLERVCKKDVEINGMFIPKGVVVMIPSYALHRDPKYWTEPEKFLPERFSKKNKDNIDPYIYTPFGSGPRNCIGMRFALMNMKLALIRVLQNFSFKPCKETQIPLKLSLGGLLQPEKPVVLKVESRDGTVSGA

[1] = comparison table with Compounds A, B, C, read-out: PDE10 Ki

human PDE10A2, sequence (Q9Y233 267-1055): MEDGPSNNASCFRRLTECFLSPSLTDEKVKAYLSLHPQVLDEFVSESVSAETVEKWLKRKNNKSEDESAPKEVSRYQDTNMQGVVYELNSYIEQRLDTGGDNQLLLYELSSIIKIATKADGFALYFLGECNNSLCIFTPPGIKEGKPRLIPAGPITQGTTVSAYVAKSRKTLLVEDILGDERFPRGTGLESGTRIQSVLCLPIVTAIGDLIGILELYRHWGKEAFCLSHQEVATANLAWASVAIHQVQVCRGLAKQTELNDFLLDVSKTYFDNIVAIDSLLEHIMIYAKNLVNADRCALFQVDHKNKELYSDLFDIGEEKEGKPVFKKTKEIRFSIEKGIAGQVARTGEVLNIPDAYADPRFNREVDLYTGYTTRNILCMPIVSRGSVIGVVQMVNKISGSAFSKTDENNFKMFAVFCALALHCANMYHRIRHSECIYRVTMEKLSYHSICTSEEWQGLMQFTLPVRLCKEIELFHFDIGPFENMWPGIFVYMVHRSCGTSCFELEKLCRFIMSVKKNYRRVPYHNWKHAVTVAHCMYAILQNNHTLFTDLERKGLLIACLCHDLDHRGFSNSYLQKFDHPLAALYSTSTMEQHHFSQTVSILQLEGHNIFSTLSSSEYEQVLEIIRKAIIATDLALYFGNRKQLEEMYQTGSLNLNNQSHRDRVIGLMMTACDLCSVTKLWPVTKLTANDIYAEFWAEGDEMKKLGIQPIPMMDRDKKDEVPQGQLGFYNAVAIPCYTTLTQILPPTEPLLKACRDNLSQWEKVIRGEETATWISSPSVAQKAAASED

SMILES | Ki (human PDE10A2; [1]) [nM] | Ki (human PDE10A2; read-out: PDE10a Ki) [nM] | IC50 (CYP2C9) [nM] | TDI CYP3A4 shift ratio (CYP3A4) | time-dependent inhibition (TDI) of the CYP3A4 enzyme (CYP3A4)
Cc1nc(N2CC(c3nc4ccccc4n3C)C2)cc(-n2nc(C)nc2C(O)C2CC2)n1 (single isomer, unassigned) [Example 6a, cyclopropyl(3-methyl-1-(2-methyl-6-(3-(1-methyl-1H-benzo[d]imidazol-2-yl)azetidin-1-yl)pyrimidin-4-yl)-1H-1,2,4-triazol-5-yl)methanol] | 0.17 | 0.17 | > 50000 | 1 | do not exhibit TDI of CYP3A4
Cc1nc([C@@H]2C[C@H]2c2nc3ccccc3n2C)cc(-n2nc(C)nc2C(C)(C)O)n1 [Compound A, 2-(3-methyl-1-(2-methyl-6-((1R,2R)-2-(1-methyl-1H-benzo[d]imidazol-2-yl)cyclopropyl)pyrimidin-4-yl)-1H-1,2,4-triazol-5-yl)propan-2-ol, reference compound] | 4.2 | – | > 50000 | 1 | –
CO[C@@H](C)c1nc(C)nn1-c1cc([C@@H]2C[C@H]2c2nc3ccccc3n2C)nc(C)n1 [Compound B, 2-((1R,2R)-2-(6-(5-((S)-1-methoxyethyl)-3-methyl-1H-1,2,4-triazol-1-yl)-2-methylpyrimidin-4-yl)cyclopropyl)-1-methyl-1H-benzo[d]imidazole, reference compound] | 2.1 | – | 10500 | 1 | –
COCc1nc(C)nn1-c1cc([C@@H]2C[C@H]2c2nc3ccccc3n2C)nc(C)n1 [Compound C, 2-((1R,2R)-2-(6-(5-(methoxymethyl)-3-methyl-1H-1,2,4-triazol-1-yl)-2-methylpyrimidin-4-yl)cyclopropyl)-1-methyl-1H-benzo[d]imidazole, reference compound] | 0.49 | – | 46000 | >1.98 | exhibited time-dependent inhibition (TDI) of the CYP3A4 enzyme
Cc1nc(N2CC(c3nc4ccccc4n3C)C2)cc(-n2nc(C)nc2[C@H](C)O)n1 [Example 1, (S)-1-(3-methyl-1-(2-methyl-6-(3-(1-methyl-1H-benzo[d]imidazol-2-yl)azetidin-1-yl)pyrimidin-4-yl)-1H-1,2,4-triazol-5-yl)ethanol] | – | 0.23 | > 50000 | 1 | do not exhibit TDI of CYP3A4
Cc1nc(N2CC(c3nc4ccccc4n3C)C2)cc(-n2nc(C)nc2[C@@H](C)O)n1 [Example 2, (R)-1-(3-methyl-1-(2-methyl-6-(3-(1-methyl-1H-benzo[d]imidazol-2-yl)azetidin-1-yl)pyrimidin-4-yl)-1H-1,2,4-triazol-5-yl)ethanol] | 1.2 | 1.2 | > 50000 | 1 | do not exhibit TDI of CYP3A4
Cc1nc([C@@H]2C[C@H]2c2nc3ccccc3n2C)cc(-n2nc(C)nc2[C@H](C)O)n1 [Example 13, (S)-1-(3-methyl-1-(2-methyl-6-((1R,2R)-2-(1-methyl-1H-benzo[d]imidazol-2-yl)cyclopropyl)pyrimidin-4-yl)-1H-1,2,4-triazol-5-yl)ethanol] | 0.74 | 0.74 | > 50000 | 1 | do not exhibit TDI of CYP3A4
Cc1nc([C@@H]2C[C@H]2c2nc3ccccc3n2C)cc(-n2nc(C)nc2[C@@H](C)O)n1 [Example 14, (R)-1-(3-methyl-1-(2-methyl-6-((1R,2R)-2-(1-methyl-1H-benzo[d]imidazol-2-yl)cyclopropyl)pyrimidin-4-yl)-1H-1,2,4-triazol-5-yl)ethanol] | 1.1 | 1.1 | > 50000 | 1 | do not exhibit TDI of CYP3A4
